For the data set, the system named is Vero. Put plainly: Cytotoxicity against african green monkey Vero cells after 24 hrs measured per 5x10^5 cells by neutral red uptake assay. The class given is cell-based. The conditions noted are these: chlorocebus sabaeus.

Turning to `CO[C@@H]1[C@@H](O)[C@H](O[C@@H]2CO[C@@H](O[C@@H]3CO[C@@H](OCC[C@@H](CC[C@@H](C)[C@H]4[C@@H](O)[C@@H](O)[C@@H]5[C@]4(C)CC[C@@H]4[C@@]6(C)CC[C@H](O)[C@H](O)[C@@H]6[C@@H](O)C[C@]45O)C(C)C)[C@H](O)[C@H]3O)[C@H](O)[C@H]2OC)OC[C@H]1O` [MONILOSIDE G], the Activity amounted to 10 µg. To `CO[C@H]1[C@H](O[C@H]2CC[C@@]3(C)[C@H]([C@H]2O)[C@H](O)C[C@]2(O)[C@@H]3CC[C@]3(C)[C@@H]([C@H](C)CC[C@H](O)C(C)C)C[C@@H](O)[C@H]32)OC[C@@H](O)[C@@H]1O` [MONILOSIDE D] belongs 3 µg; to `CO[C@H]1[C@H](O[C@H]2CC[C@]3(C)C4=CC[C@]5(C)[C@@H]([C@H](C)CC[C@H](O)C(C)C)C[C@@H](O)[C@H]5C4=CC[C@H]3C2)OC[C@@H](O)[C@@H]1O` [MONILOSIDE A], 3 µg; to `CO[C@@H]1[C@@H](O)[C@H](OCC[C@@H](/C=C/[C@@H](C)[C@H]2[C@@H](O)[C@@H](O)[C@@H]3[C@]2(C)CC[C@@H]2[C@@]4(C)CC[C@H](O)[C@H](O)[C@@H]4[C@@H](O)C[C@]23O)C(C)C)OC[C@H]1O[C@@H]1OC[C@H](O)[C@H](O)[C@H]1O` [MONILOSIDE F], 10 µg. Turning to `CO[C@H]1[C@H](O[C@H]2CC[C@@]3(C)[C@H]([C@H]2O)[C@H](O)C[C@H]2[C@@H]4[C@H](O)C[C@H]([C@H](C)CC[C@H](O)C(C)C)[C@@]4(C)CC[C@@H]23)OC[C@@H](O)[C@@H]1O` [MONILOSIDE C], the Activity came to 3 µg. Take `CO[C@@H]1[C@@H](O)[C@H](O[C@@H]2CO[C@@H](O[C@@H]3CO[C@@H](OCC[C@@H](/C=C/[C@@H](C)[C@H]4[C@@H](O)[C@@H](O)[C@@H]5[C@]4(C)CC[C@@H]4[C@@]6(C)CC[C@H](O)[C@H](O)[C@@H]6[C@@H](O)C[C@]45O)C(C)C)[C@H](O)[C@H]3O)[C@H](O)[C@H]2OC)OC[C@H]1O`: the Activity worked out at 10 µg. In the case of `CO[C@@H]1[C@@H](O)[C@H](OCC[C@@H](CC[C@@H](C)[C@H]2[C@@H](O)[C@@H](O)[C@@H]3[C@]2(C)CC[C@@H]2[C@@]4(C)CC[C@H](O)[C@H](O)[C@@H]4[C@@H](O)C[C@]23O)C(C)C)OC[C@H]1O[C@@H]1OC[C@H](O)[C@H](O)[C@H]1O` [MONILOSIDE E], the Activity stood at 10 µg. Take `CO[C@H]1[C@H](O[C@H]2CC[C@]3(C)C4=CC[C@]5(C)[C@@H]([C@H](C)CC[C@H](O)C(C)C)C[C@@H](O)[C@H]5C4=CC[C@H]3[C@H]2O)OC[C@@H](O)[C@@H]1O` [MONILOSIDE B]: the Activity came to 3 µg. Compound `CO[C@@H]1[C@@H](O)[C@H](O[C@@H]2CO[C@@H](O[C@@H]3CO[C@@H](OCC[C@@H](CC[C@@H](C)[C@H]4[C@@H](O)[C@@H](O)[C@@H]5[C@]4(C)CC[C@@H]4[C@@]6(C)CC[C@H](O)[C@H](O)[C@@H]6[C@@H](O)C[C@]45O)C(C)C)[C@H](O)[C@H]3O)[C@H](O)[C@H]2O)OC[C@H]1O` [MONILOSIDE I] gave an Activity of 1 µg.

The values above are taken from ChEMBL document CHEMBL1147334, “Starfish saponins, part 49. New cytotoxic steroidal glycosides from the starfish Fromia monilis” (J Nat Prod, 1993).
